Legend:
Human H3 = Human H3 (Homo sapiens, UniProt Q9Y5N1); assay: Functional assay II, human H3 GTPγS; assay type: biochemical; conditions: read-out: hH3-GTPgS) [Ki]
rat = assay: Open cage schedule-fed rat model, food intake; assay type: in vivo; conditions: for Feed. Inhib. rat [Response 3 h]: response at 3 h
hERG = hERG (Homo sapiens, UniProt Q12809); assay: Herg-binding (3H-Astemizol); conditions: probe 3H-astemizole
CYP2C19 = CYP2C19 (Homo sapiens, UniProt P33261); assay: CYP2C19 inhibition; assay type: in vitro ADME; conditions: read-out: CYP2C19inh [IC50]
CYP2C9 = CYP2C9 (Homo sapiens, UniProt P11712); assay: CYP2C9 inhibition; assay type: in vitro ADME; conditions: read-out: CYP2C9inh [IC50]
CYP2D6 = CYP2D6 (Homo sapiens, UniProt P10635); assay: CYP2D6 inhibition; assay type: in vitro ADME; conditions: read-out: CYP2D6inh [IC50]
CYP3A4 = CYP3A4 (Homo sapiens, UniProt P08684); assay: CYP3A4 inhibition; assay type: in vitro ADME; conditions: read-out: CYP3A4inh [IC50]
CYP1A = target: T1, CYP1A (Homo sapiens, UniProt P05177); assay: CYP1A inhibition
T1 sequence (P05177 2-516): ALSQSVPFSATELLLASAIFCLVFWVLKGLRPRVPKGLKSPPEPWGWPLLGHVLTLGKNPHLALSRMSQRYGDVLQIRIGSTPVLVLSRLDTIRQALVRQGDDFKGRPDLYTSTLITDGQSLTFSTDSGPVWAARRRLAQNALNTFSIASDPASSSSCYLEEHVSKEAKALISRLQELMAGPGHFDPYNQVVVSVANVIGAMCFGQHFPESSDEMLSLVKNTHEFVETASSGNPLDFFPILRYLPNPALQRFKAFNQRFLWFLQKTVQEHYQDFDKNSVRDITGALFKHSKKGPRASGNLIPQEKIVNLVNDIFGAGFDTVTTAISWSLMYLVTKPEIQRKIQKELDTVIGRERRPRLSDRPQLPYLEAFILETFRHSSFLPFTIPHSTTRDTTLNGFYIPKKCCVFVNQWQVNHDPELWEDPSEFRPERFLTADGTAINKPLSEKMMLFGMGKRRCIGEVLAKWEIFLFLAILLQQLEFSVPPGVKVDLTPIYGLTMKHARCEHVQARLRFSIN

Chain of CYP2C19 (P33261 whole entry): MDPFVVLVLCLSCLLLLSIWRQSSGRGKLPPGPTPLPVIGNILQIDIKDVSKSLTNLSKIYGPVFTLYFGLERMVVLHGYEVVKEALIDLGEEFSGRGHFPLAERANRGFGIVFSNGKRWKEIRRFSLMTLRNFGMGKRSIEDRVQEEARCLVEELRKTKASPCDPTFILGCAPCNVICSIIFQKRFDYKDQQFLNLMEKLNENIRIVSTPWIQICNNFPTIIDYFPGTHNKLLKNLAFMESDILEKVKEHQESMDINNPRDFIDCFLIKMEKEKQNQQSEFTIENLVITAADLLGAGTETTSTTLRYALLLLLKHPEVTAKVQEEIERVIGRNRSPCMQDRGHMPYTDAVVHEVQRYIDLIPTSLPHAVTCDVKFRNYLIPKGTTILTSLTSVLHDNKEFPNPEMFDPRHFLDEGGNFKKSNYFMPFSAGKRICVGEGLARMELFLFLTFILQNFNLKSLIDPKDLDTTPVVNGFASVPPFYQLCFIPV
Chain of hERG (Q12809 whole entry): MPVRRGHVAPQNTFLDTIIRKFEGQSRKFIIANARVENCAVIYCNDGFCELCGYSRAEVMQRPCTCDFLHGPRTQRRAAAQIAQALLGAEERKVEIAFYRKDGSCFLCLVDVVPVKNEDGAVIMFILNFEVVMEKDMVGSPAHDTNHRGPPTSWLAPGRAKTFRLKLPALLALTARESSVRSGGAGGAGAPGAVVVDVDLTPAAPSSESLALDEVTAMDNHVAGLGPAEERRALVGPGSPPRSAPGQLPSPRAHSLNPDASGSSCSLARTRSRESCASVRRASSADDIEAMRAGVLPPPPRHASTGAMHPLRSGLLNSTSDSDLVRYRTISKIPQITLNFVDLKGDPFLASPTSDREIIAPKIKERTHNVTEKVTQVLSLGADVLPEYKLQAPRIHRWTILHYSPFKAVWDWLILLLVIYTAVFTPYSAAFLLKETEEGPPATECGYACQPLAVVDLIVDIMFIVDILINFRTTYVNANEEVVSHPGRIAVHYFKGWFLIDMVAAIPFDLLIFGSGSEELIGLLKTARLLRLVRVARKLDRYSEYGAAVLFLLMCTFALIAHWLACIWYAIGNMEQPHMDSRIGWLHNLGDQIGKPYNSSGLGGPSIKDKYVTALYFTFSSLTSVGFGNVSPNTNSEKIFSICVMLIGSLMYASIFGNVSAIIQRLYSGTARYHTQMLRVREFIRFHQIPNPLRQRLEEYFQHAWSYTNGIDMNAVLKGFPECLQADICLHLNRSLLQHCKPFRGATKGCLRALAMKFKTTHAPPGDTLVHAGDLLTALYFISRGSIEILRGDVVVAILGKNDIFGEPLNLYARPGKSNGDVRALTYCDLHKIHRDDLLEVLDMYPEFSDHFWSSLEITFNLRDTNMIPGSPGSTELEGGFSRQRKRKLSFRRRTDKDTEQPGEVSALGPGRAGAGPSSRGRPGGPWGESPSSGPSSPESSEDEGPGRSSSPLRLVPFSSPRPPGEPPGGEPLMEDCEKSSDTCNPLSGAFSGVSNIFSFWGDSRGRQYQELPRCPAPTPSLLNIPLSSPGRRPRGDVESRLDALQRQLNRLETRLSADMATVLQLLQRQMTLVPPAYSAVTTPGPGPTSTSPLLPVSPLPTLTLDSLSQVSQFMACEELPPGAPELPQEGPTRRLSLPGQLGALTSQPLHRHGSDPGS
Chain of CYP3A4 (P08684 whole entry): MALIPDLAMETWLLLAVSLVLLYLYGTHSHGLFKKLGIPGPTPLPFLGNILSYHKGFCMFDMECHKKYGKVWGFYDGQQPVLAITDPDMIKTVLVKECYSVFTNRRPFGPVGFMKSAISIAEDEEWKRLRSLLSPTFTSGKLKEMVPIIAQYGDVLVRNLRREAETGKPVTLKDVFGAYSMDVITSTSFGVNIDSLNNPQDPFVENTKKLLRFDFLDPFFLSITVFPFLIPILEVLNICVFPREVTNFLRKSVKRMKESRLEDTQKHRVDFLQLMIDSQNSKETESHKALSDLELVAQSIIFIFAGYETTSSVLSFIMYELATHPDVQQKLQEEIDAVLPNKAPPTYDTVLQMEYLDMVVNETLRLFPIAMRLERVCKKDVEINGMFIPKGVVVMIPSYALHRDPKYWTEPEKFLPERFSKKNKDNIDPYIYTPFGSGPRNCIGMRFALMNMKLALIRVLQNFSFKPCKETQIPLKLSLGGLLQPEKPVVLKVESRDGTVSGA
Chain of Human H3 (Q9Y5N1 whole entry): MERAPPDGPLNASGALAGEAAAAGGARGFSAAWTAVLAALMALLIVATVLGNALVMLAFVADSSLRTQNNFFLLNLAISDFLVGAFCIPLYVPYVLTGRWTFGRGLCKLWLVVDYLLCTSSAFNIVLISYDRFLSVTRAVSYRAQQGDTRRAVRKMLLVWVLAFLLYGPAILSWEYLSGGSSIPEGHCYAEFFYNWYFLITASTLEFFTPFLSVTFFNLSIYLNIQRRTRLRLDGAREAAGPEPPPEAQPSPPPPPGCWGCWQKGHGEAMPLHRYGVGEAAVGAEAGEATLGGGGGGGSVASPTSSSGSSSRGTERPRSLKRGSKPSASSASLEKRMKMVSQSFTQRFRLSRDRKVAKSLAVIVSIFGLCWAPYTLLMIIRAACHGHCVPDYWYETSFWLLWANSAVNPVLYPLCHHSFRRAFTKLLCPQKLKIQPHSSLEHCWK
Chain of CYP2D6 (P10635 whole entry): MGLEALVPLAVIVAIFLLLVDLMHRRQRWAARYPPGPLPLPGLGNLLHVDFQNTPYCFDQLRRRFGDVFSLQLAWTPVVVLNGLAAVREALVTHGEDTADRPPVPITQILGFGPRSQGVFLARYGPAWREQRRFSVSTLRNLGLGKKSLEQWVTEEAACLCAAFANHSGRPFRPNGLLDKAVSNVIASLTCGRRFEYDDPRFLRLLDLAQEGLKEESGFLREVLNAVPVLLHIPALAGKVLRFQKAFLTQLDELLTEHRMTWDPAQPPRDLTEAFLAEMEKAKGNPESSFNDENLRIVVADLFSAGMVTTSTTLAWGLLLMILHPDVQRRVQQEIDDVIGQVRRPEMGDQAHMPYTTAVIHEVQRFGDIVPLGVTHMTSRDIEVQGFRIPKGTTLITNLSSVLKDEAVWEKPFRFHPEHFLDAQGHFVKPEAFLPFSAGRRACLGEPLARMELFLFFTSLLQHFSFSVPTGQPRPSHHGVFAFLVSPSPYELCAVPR
Chain of CYP2C9 (P11712 whole entry): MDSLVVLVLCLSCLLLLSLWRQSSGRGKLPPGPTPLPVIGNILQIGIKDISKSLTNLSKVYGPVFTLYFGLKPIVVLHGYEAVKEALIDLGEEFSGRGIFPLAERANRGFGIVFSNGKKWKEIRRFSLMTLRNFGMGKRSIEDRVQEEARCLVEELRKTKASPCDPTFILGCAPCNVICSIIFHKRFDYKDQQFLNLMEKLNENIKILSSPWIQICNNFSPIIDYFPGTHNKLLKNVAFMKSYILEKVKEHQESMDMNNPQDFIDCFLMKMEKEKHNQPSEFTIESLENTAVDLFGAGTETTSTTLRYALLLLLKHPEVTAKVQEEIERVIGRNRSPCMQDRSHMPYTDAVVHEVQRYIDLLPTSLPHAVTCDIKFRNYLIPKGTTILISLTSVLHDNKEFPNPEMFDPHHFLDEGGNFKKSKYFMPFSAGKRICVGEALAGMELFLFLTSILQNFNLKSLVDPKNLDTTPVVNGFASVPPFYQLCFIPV

CC(C)N1CCC(c2ccc(-c3ccc(C(=O)N4CCCC4)cc3)cn2)CC1.Cl.Cl [Example 11, [4-(1′-Isopropyl-1′,2′,3′,4′,5′,6′-hexahydro-[2,4′]bipyridinyl-5-yl)phenyl]pyrrolidin-1-ylmethanone]
Ki (Human H3): 0.026 µM | Open cage schedule-fed rat model, dose 15 mg/kg p.o., food intake at 3 h (rat): 85.9 % of vehicle | Feed. Inhib. rat [Response 3 h] (rat): 85.9% | inhibition at 10 µM (hERG): 19% | IC50 (CYP2C19): > 25 µM | IC50 (CYP2C9): > 25 µM | IC50 (CYP2D6): > 25 µM | IC50 (CYP3A4): > 25 µM | IC50 (CYP1A): > 25 µM

Cc1cc(-c2ccc(CC3CCN(C4CCC4)CC3)nc2)ccn1.Cl.Cl [Example 29, 6-(1-Cyclobutylpiperidin-4-ylmethyl)-2′-methyl-[3,4′]bipyridinyl]
Ki (Human H3): 0.0084 µM | Open cage schedule-fed rat model, dose 15 mg/kg p.o., food intake at 3 h (rat): 74.4 % of vehicle | Feed. Inhib. rat [Response 3 h] (rat): 74.4% | inhibition at 10 µM (hERG): 7% | IC50 (CYP2C19): > 25 µM | IC50 (CYP2C9): > 25 µM | IC50 (CYP2D6): > 25 µM | IC50 (CYP3A4): > 25 µM | IC50 (CYP1A): > 25 µM

CC(C)N1CCN(Cc2ccc(-c3ccc(C(=O)N(C)C)cc3)cn2)CC1.Cl.Cl [Example 42, 4-[6-(4-Isopropylpiperazin-1-ylmethyl)pyridin-3-yl]-N,N-dimethylbenzamide]
Ki (Human H3): 0.017 µM | Open cage schedule-fed rat model, dose 15 mg/kg p.o., food intake at 3 h (rat): 87.8 % of vehicle | Feed. Inhib. rat [Response 3 h] (rat): 87.8% | inhibition at 10 µM (hERG): 7% | IC50 (CYP2C19): > 25 µM | IC50 (CYP2C9): > 25 µM | IC50 (CYP2D6): > 25 µM | IC50 (CYP3A4): > 25 µM | IC50 (CYP1A): > 25 µM
